Reference: ChEMBL document CHEMBL4840372, “Talarodrides A-F, Nonadrides from the Antarctic Sponge-Derived Fungus Talaromyces sp. HDN1820200” (J Nat Prod, 2021)
Converted amounts (≈) assume the structure as drawn.

Key:
Bacillus cereus = assay: Antimicrobial activity against Bacillus cereus assessed as reduction in bacterial growth by agar dilution method; assay type: functional
Acinetobacter baumannii = assay: Antimicrobial activity against Acinetobacter baumannii assessed as reduction in bacterial growth by agar dilution method; assay type: functional
Proteus mirabilis = assay: Antimicrobial activity against Proteus mirabilis assessed as reduction in bacterial growth by agar dilution method; assay type: functional
Mycolicibacterium phlei = assay: Antimicrobial activity against Mycobacterium phlei assessed as reduction in bacterial growth by agar dilution method; assay type: functional
Edwardsiella tarda = assay: Antimicrobial activity against Edwardsiella tarda assessed as reduction in bacterial growth by agar dilution method; assay type: functional
Escherichia coli = assay: Antimicrobial activity against Escherichia coli assessed as reduction in bacterial growth by agar dilution method; assay type: functional
Bacillus subtilis = assay: Antimicrobial activity against Bacillus subtilis assessed as reduction in bacterial growth by agar dilution method; assay type: functional
Staphylococcus aureus = assay: Antimicrobial activity against methicillin-resistant Staphylococcus aureus assessed as reduction in bacterial growth by agar dilution method; assay type: functional
Vibrio parahaemolyticus = assay: Antimicrobial activity against Vibrio parahaemolyticus assessed as reduction in bacterial growth by agar dilution method; assay type: functional
Staphylococcus = assay: Antimicrobial activity against methicillin-resistant coagulase-negative Staphylococci assessed as reduction in bacterial growth by agar dilution method; assay type: functional
K562 = assay: Cytotoxicity against human K562 cells assessed as reduction in cell viability by MTT assay; assay type: functional, cell-based
Bel-7402 = assay: Cytotoxicity against human Bel-7402 cells assessed as reduction in cell viability by SRB assay; assay type: functional, cell-based
HCT-116 = assay: Cytotoxicity against human HCT-116 cells assessed as reduction in cell viability by SRB assay; assay type: functional, cell-based
A549 = assay: Cytotoxicity against human A549 cells assessed as reduction in cell viability by SRB assay; assay type: functional, cell-based
HeLa = assay: Cytotoxicity against human HeLa cells assessed as reduction in cell viability by SRB assay; assay type: functional, cell-based
L02 = assay: Cytotoxicity against human L02 cells assessed as reduction in cell viability by SRB assay; assay type: cell-based
GES1 = assay: Cytotoxicity against human GES1 cells assessed as reduction in cell viability by SRB assay; assay type: functional, cell-based
U-87 MG = assay: Cytotoxicity against human U87 cells assessed as reduction in cell viability by SRB assay; assay type: functional, cell-based, U-87MG ATCC
ASPC1 = assay: Cytotoxicity against human ASPC1 cells assessed as reduction in cell viability by SRB assay; assay type: functional, cell-based
SH-SY5Y = assay: Cytotoxicity against human SH-SY5Y cells assessed as reduction in cell viability by SRB assay; assay type: functional, cell-based
PC-3 = assay: Cytotoxicity against human PC-3 cells assessed as reduction in cell viability by SRB assay; assay type: functional, cell-based
MGC-803 = assay: Cytotoxicity against human MGC-803 cells assessed as reduction in cell viability by SRB assay; assay type: functional, cell-based
[1] = Cytotoxicity against human HO-8910 cells assessed as reduction in cell viability by SRB assay; assay type: functional, cell-based
MCF7 = assay: Cytotoxicity against human MCF7 cells assessed as reduction in cell viability by SRB assay; assay type: functional, cell-based
MDA-MB-231 = assay: Cytotoxicity against human MDA-MB-231 cells assessed as reduction in cell viability by SRB assay; assay type: functional, cell-based
NCI-H446 = assay: Cytotoxicity against human NCI-H446 cells assessed as reduction in cell viability by SRB assay; assay type: functional, cell-based

SMILES	MIC (Bacillus cereus)	MIC (Acinetobacter baumannii)	MIC (Proteus mirabilis)	MIC (Mycolicibacterium phlei)	MIC (Edwardsiella tarda)	MIC (Escherichia coli)	MIC (Bacillus subtilis)	MIC (Staphylococcus aureus)	MIC (Vibrio parahaemolyticus)	MIC (Staphylococcus)	IC50 (K562)	IC50 (Bel-7402)	IC50 (HCT-116)	IC50 (A549)	IC50 (HeLa)	IC50 (L02)	IC50 (GES1)	IC50 (U-87 MG)	IC50 (ASPC1)	IC50 (SH-SY5Y)	further results
O=C(O)c1cn(C2CC2)c2cc(N3CCNCC3)c(F)cc2c1=O [CIPROFLOXACIN]	0.78 µM (≈ 0.258 µg/mL)	25 µM (≈ 8.28 µg/mL)	0.098 µM (≈ 0.0325 µg/mL)	0.195 µM (≈ 0.0646 µg/mL)	0.0245 µM (≈ 0.00812 µg/mL)	25 µM (≈ 8.28 µg/mL)	0.195 µM (≈ 0.0646 µg/mL)	25 µM (≈ 8.28 µg/mL)	0.39 µM (≈ 0.129 µg/mL)	25 µM (≈ 8.28 µg/mL)											
CCCC[C@H]1CC2C([C@@H](O)C(=O)[C@H](O)CCC)C=C3C4(OC(=O)[C@]3(C)CC3=C(C(=O)OC3=O)C24)O1 (stereo partly specified)	> 50 µM	> 50 µM	> 50 µM	> 50 µM	> 50 µM	> 50 µM	> 50 µM	> 50 µM	> 50 µM	> 50 µM	> 30 µM	> 30 µM	> 30 µM	> 30 µM	> 30 µM	> 30 µM	> 30 µM	> 30 µM	> 30 µM	> 30 µM	IC50 (PC-3): > 30 µM; IC50 (MGC-803): > 30 µM; IC50 [1]: > 30 µM; IC50 (MCF7): > 30 µM; IC50 (MDA-MB-231): > 30 µM; IC50 (NCI-H446): > 30 µM
CCCCCCC1C([C@@H](O)C(=O)[C@H](O)CCC)C=C2C3(OC)OC(=O)[C@]2(C)CC2=C(C(=O)OC2=O)C13 (stereo partly specified)	> 50 µM	> 50 µM	3.13 µM (≈ 1.58 µg/mL)	> 50 µM	> 50 µM	> 50 µM	> 50 µM	> 50 µM	6.13 µM (≈ 3.09 µg/mL)	> 50 µM	> 30 µM	> 30 µM	> 30 µM	> 30 µM	> 30 µM	> 30 µM	> 30 µM	> 30 µM	> 30 µM	> 30 µM	IC50 (PC-3): > 30 µM; IC50 (MGC-803): > 30 µM; IC50 [1]: > 30 µM; IC50 (MCF7): > 30 µM; IC50 (MDA-MB-231): > 30 µM; IC50 (NCI-H446): > 30 µM
CCCCCCC1C2C(=O)C(=CC1[C@@H](O)C(=O)[C@H](O)CCC)[C@@H](C)CC1=C2C(=O)OC1=O (stereo partly specified)	> 50 µM	> 50 µM	> 50 µM	> 50 µM	> 50 µM	> 50 µM	> 50 µM	> 50 µM	> 50 µM	> 50 µM	> 30 µM	> 30 µM	> 30 µM	> 30 µM	> 30 µM	> 30 µM	> 30 µM	> 30 µM	> 30 µM	> 30 µM	IC50 (PC-3): > 30 µM; IC50 (MGC-803): > 30 µM; IC50 [1]: > 30 µM; IC50 (MCF7): > 30 µM; IC50 (MDA-MB-231): > 30 µM; IC50 (NCI-H446): > 30 µM
CCCCCCC1C([C@@H](O)C(=O)[C@H](O)CCC)C=C2C3(O)OC(=O)[C@]2(C)CC2=C(C(=O)OC2=O)C13 (stereo partly specified)	> 50 µM	> 50 µM	12.5 µM (≈ 6.13 µg/mL)	> 50 µM	> 50 µM	> 50 µM	> 50 µM	> 50 µM	> 50 µM	> 50 µM	> 30 µM	> 30 µM	> 30 µM	> 30 µM	> 30 µM	> 30 µM	> 30 µM	> 30 µM	> 30 µM	> 30 µM	IC50 (PC-3): > 30 µM; IC50 (MGC-803): > 30 µM; IC50 [1]: > 30 µM; IC50 (MCF7): > 30 µM; IC50 (MDA-MB-231): > 30 µM; IC50 (NCI-H446): > 30 µM
CCCCCCC1C([C@@H](O)C(=O)[C@H](C)CCC)C=C2C3(OC)OC(=O)[C@]2(C)CC2=C(C(=O)OC2=O)C13 (stereo partly specified)	> 50 µM	> 50 µM	> 50 µM	> 50 µM	> 50 µM	> 50 µM	> 50 µM	> 50 µM	> 50 µM	> 50 µM	> 30 µM	> 30 µM	> 30 µM	> 30 µM	> 30 µM	> 30 µM	> 30 µM	> 30 µM	> 30 µM	> 30 µM	IC50 (PC-3): > 30 µM; IC50 (MGC-803): > 30 µM; IC50 [1]: > 30 µM; IC50 (MCF7): > 30 µM; IC50 (MDA-MB-231): > 30 µM; IC50 (NCI-H446): > 30 µM
CCCCCCC1C2C(=O)C(=CC1[C@@H](O)C(=O)[C@H](O)CCC)[C@](C)(C(=O)OC)CC1=C2C(=O)OC1=O (stereo partly specified)	> 50 µM	> 50 µM	> 50 µM	> 50 µM	> 50 µM	> 50 µM	> 50 µM	> 50 µM	> 50 µM	> 50 µM	> 30 µM	> 30 µM	> 30 µM	> 30 µM	> 30 µM	> 30 µM	> 30 µM	> 30 µM	> 30 µM	> 30 µM	IC50 (PC-3): > 30 µM; IC50 (MGC-803): > 30 µM; IC50 [1]: > 30 µM; IC50 (MCF7): > 30 µM; IC50 (MDA-MB-231): > 30 µM; IC50 (NCI-H446): > 30 µM
